Test results published in patent US10251396B2, “Amide compound and use of same for noxious arthropod control” (SUMITOMO CHEMICAL COMPANY, LIMITED, priority 2014, dated 2019).

What was measured:
Assay type in all cases: in vivo
Plutella xylostella = test: Test Example 6: cabbage foliar spray test on second instar larvae of Plutella xylostella; settings: 500 ppm diluted solution, 20 mL/cup sprayed to cabbage, 25° C., after 5 days
Method: A formulation containing the compound (21) prepared in accordance with Formulation Example 15 was diluted with water so that the concentration became 500 ppm, to prepare a diluted solution. On the other hand, the diluted solution was sprayed to a cabbage at a stage of three leaves planted in a polyethylene cup at a ratio of 20 mL/cup. After spraying, the plant was air-dried, foliage portions were cut and accommodated into a 50 mL cup, 5 second instar larvae of Plutella xylostella were released, and the cup was covered. This was stored at 25° C., and after 5 days, the number of dead vermin was counted, and a dead vermin ratio was obtained by the following expression.

Blattella germanica = test: Test Example 1: spray knockdown test on Blattella germanica; settings: 0.25 h; 2.0% w/v in isopropyl alcohol/kerosine=1/9, 1.5 mL sprayed, ten Blattella germanica, within 15 minutes; read-out: knockdown ratio of test vermin within 15 minutes
Method: A formulation containing each of the compounds (1), (3), (4), (5), (8), (11), (12) and (21) prepared in accordance with Formulation Example 7 was diluted with an isopropyl alcohol/kerosine=1/9 mixed liquid so that the concentration of each compound became 2.0% w/v, to obtain a diluted solution. Ten vermin Blattella germanica (male female each five vermin) were allowed to release in a container for a test in which a butter was applied on an inner wall (diameter 8.75 cm, height 7.5 cm, bottom face covered with 16 mesh wire net), and the container was arranged on a bottom of a chamber for a test (bottom surface: 46 cm×46 cm, height: 70 cm). From a height of 60 cm from an upper surface of the container, 1.5 mL of the diluted solution was sprayed using a spray gun (spraying pressure 0.42 kg/cm^2). Thirty seconds after spraying, the container was taken out from the chamber for a test, the number of vermin which had been knocked down was counted for 15 minutes with time, and a knockdown ratio was obtained. The knockdown ratio was calculated by the following expression. Knockdown ratio (%)=(number of knocked down vermin/number of test vermin)×100 As a result, the knockdown ratio of test vermin within 15 minutes was 80% or more, in treatment with the compounds (1), (3), (4), (5), (8), (11), (12) and (21), respectively.

Aphis gossypii = test: Test Example 5: foliar spray test on Aphis gossypii on cucumber; settings: 500 ppm diluted solution, 20 mL/cup sprayed to cucumber, six days after spraying
Method: A formulation containing the compound (4) prepared in accordance with Formulation Example 15 was diluted with water so that the concentration became 500 ppm to obtain a diluted solution. On the other hand, a cucumber was planted in a polyethylene cup, and grown until a first true leaf developed. About 20 vermin of Aphis gossypii was parasitized therein. After one day, the diluted solution was sprayed to the cucumber at a ratio of 20 mL/cup. Six days after spraying, the number of live or dead vermin of Aphis gossypii was investigated, and a controlling value was obtained by the following expression. Controlling value (%)={1−(Cb×Tai)/(Cai×Tb)}×100 In addition, letters in the expression indicate the following meanings.

| Structure (SMILES) | dead vermin ratio (Plutella xylostella) | pest or weed control at 2 % strength (Blattella germanica) | controlling value (Aphis gossypii) |
| --- | --- | --- | --- |
| COC(C)CNC(=O)c1cc(COCc2ccc3ccccc3c2)on1 (stereo not shown) [compound (21)] | ≥ 80% | ≥ 80% | – |
| C=C(C)CNC(=O)c1cc(COCc2ccccc2)on1 [compound (3)] | – | ≥ 80% | – |
| COC(CNC(=O)c1cc(COCc2ccccc2)on1)OC [compound (11)] | – | ≥ 80% | – |
| COC(C)CNC(=O)c1cc(COCc2ccccc2)on1 (stereo not shown) [compound (4)] | – | ≥ 80% | ≥ 90% |
| COCCNC(=O)c1cc(COCc2ccccc2)on1 [compound (5)] | – | ≥ 80% | – |
| CC(C)CNC(=O)c1cc(COCc2ccccc2)on1 [compound (1)] | – | ≥ 80% | – |
| COCC(COC)NC(=O)c1cc(COCc2ccccc2)on1 [compound (12)] | – | ≥ 80% | – |
| COC(C)(C)CNC(=O)c1cc(COCc2ccccc2)on1 [compound (8)] | – | ≥ 80% | – |
